Measurements from PMC10535741, “Styrylpyridinium Derivatives for Fluorescent Cell Imaging” (Pharmaceuticals, 2023).

Test system: BMDMs
Assay: Nitric oxide production of pre-stained macrophages polarised to M1 phenotype (Griess test)
Type: cell-based, mouse
Details: after 2 days activation with IFNγ and PAM3SCK4; 5-50 μM 6e
Experimental: The impact of SP compound 6e on the BMDMs’ functional characteristics was also assessed by performing cell differentiation into the M1 phenotype in the presence of compound 6e. The BMDMs were treated with 5–50 μM compound 6e and the cell medium was replaced with a macrophage differentiation medium containing recombinant mouse interferon-gamma (IFNγ) and the TLR2/1 ligand PAM3SCK4 to ensure M1 polarisation. Activated cells express proinflammatory molecules (cytokines and chemokines), as well as nitric oxide (NO) as the main features of their proinflammatory M1-like macrophage phenotype. To verify the NO level in cell culture media, nitrites, as nitric oxide oxidation products, were measured by the standard Griess test. […]
For polarisation of macrophages to the pro-inflammatory M1 phenotype, the BMDM cells stained in a 12-well plate were used. […] After two days of activation, the nitric oxide levels (as a main signal of M1 polarisation) were measured in cell supernatants of activated (M1) and non-activated (M0) cells. The amount of nitric oxide was determined via a nitric oxide assay kit (Cat. No. EMSNO; Invitrogen). Briefly, 50 µL of cell culture media was collected from each well, clarified by centrifugation, and used for NO quantification. The nitrite standards provided by the kit were used for standard curve generation and NO quantification. […]

Question: For CCCCCCCCCCCCCCCC[n+]1ccc(C=CC=Cc2cc3c4c(c2)CCCN4CCC3)cc1.[Br-] [Compound 6e, 1-hexadecyl-4-(4-(2,3,6,7-tetrahydro-1H,5H-pyrido[3,2,1-ij]quinolin-9-yl)buta-1,3-dien-1-yl)pyridin-1-ium bromide], which “NO production of stained BMDMs” value is on record?
Answer: up to 21.5 µM
